Data as given in ChEMBL document CHEMBL1201862, “PubChem BioAssay data set” (2004).
Active and inactive are the calls of the source.

Columns and labels:
[1] = ZM109 Env clade C HIV-1 fusion inhibitors, dose response, HeLa effector, CEM target cells, luciferase, cherry-pick (AID 652058); type: functional, cell-based
[2] = inhibitors of clade B AD8 Env fusion, dose response, cell-based, cherry-pick (AID 652062); type: functional;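 note: luciferase signal from cell-cell fusion driven by HIV-1 clade B AD8 Env; potency is for inhibitors of fusion seen as a drop in luminescence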
[3] = inhibitors of HIV Env-driven cell fusion, dose response, cherry-pick (AID 652057); type: functional, cell-based
[4] = HIV Env cell-cell fusion inhibitors, dose response, HIV entry, plate reader, dry powder (AID 687023); type: functional, cell-based
[5] = target: Cytochrome P450 2D6 (Homo sapiens, UniProt P10635);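 note: CYP2D6 member of a cytochrome P450 panel assay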
[6] = test system: Streptococcus sp. 'group A'; assay: growth inhibition of control SK(-) GAS strain, dose response, counter-screen for streptokinase expression inhibitor project, luminescence, kanamycin, BacTiterGlo, confirmation (AID 1900); type: functional, organism-based
[7] = target: T1, Methionyl-tRNA synthetase, putative (Trypanosoma brucei brucei, UniProt Q38C91); type: functional, Trypanosoma brucei brucei strain 927/4 GUTat10.1
T1 sequence (Q38C91 whole entry): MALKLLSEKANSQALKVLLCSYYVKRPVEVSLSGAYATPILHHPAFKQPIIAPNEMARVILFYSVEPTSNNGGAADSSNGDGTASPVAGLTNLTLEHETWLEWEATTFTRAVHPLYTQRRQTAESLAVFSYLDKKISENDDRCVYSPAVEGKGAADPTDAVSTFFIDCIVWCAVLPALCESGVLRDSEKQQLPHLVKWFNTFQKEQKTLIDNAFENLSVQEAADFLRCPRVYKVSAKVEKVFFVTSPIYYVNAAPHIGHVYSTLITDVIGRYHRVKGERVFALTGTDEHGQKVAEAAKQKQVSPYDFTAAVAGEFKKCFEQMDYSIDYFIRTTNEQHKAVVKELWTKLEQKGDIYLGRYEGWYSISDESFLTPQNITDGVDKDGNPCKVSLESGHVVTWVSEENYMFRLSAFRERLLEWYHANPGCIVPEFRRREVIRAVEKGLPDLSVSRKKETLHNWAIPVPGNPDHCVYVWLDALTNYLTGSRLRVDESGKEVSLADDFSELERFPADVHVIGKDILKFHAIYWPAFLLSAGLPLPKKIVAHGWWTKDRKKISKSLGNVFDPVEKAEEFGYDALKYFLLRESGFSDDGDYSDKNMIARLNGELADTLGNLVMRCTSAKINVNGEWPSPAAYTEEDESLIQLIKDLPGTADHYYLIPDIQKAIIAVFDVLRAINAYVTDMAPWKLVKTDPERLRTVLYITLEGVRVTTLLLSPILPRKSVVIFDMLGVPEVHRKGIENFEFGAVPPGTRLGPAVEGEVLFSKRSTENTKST

[8] = test system: Streptococcus; assay: Group A Streptococcus viability loss, dose response, counter-screen for streptokinase expression inhibitor project, luminescence, BacTiterGlo (AID 1915); type: functional, organism-based;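 note: potency for reduction of bacterial viability or growth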
[9] = Counterscreen for inhibitors of Trypanosoma brucei methionyl tRNA synthetase (MetRS): Luminescence-based cell-based high throughput dose response assay to identify compounds that are cytotoxic to Jurkat human T lymphocyte cells.; type: functional
[10] = Luminescence Cell-Based Dose Retest to Confirm Inhibitors of Cancer Stem Cells. [Related pubchem assays (depositor defined):AID2717, AID2721]; type: functional; conditions: Homo sapiens
[11] = target: T1, Methionyl-tRNA synthetase, putative; type: functional, Trypanosoma brucei brucei strain 927/4 GUTat10.1; remark: listed apart in the source
[12] = target: T2, Streptokinase A (Streptococcus pyogenes serotype M1, UniProt P10520); assay: S. pyogenes streptokinase expression inhibitors, potency, dose response, plasminogen activation absorbance, OD405 (AID 1914); type: functional, Streptococcus pyogenes M1 GAS;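 note: secreted streptokinase activity via plasminogen activation per viability signal from cell pellet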
T2 sequence (P10520 whole entry): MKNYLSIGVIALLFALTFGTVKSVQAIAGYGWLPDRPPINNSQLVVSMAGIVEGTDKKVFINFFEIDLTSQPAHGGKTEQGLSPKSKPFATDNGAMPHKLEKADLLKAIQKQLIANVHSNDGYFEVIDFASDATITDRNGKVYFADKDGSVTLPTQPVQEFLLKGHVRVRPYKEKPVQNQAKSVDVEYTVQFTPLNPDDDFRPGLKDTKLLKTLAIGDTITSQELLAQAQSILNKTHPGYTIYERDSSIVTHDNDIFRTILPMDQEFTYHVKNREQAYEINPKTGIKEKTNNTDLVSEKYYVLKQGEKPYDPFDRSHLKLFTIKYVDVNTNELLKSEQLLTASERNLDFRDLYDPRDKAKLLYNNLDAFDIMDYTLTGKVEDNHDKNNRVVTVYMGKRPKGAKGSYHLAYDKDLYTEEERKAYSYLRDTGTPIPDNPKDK

[13] = Late stage counterscreen for inhibitors of Trypanosoma brucei methionyl tRNA synthetase (MetRS): Luminescence-based cell-based high throughput dose response assay to identify compounds that are cytotoxic to Jurkat human T lymphocyte cells.; type: functional
[14] = target: T3, NAD-dependent protein deacylase sirtuin-5, mitochondrial (Homo sapiens, UniProt Q9NXA8); assay: SIRT5 deacylase inhibitors, dose response, biochemical, fluorescence imaging, cherry-pick, set 6 (AID 720597)
[15] = target: T4, Polyadenylate-binding protein 1 (Homo sapiens, UniProt P11940); assay: PABP1 MLLE–PAM2 binding inhibitor potency, dose response, biochemical, fluorescence polarization, FITC-PAM2 peptide (AID 602259); type: functional; conditions: read-out: IC50_Mean
[16] = Artemis endonuclease inhibitor potency, dose response, biochemical, fluorescence intensity (AID 720701); type: functional;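 note: Artemis endonuclease enzyme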
[17] = target: Induced myeloid leukemia cell differentiation protein Mcl-1 (Homo sapiens, UniProt Q07820); type: functional
[18] = target: T4, Polyadenylate-binding protein 1; assay: PABP1 MLLE–PAM2 interaction inhibitors, dose response, miRNA deadenylation inhibitor project, biochemical, fluorescence polarization, Cy5-PAM2 peptide, secondary (AID 602260); type: functional; conditions: read-out: IC50_Mean
[19] = target: Glutathione-S-transferase (Schistosoma japonicum, UniProt Q26513); assay: biotin-GST/anti-GST TR-FRET signal inhibitors, dose response, artefact control for Vif-APOBEC3G degradation inhibitor project, biochemical (AID 1117362); type: functional
[20] = target: T5, Rac GTPase-activating protein 1 (Homo sapiens, UniProt Q9H0H5); assay: MgcRacGAP GTPase-activating activity inhibitors, confirmation, biochemical, ADP Hunter fluorescence, primary and confirmatory (AID 624330); type: functional
T5 sequence (Q9H0H5 whole entry): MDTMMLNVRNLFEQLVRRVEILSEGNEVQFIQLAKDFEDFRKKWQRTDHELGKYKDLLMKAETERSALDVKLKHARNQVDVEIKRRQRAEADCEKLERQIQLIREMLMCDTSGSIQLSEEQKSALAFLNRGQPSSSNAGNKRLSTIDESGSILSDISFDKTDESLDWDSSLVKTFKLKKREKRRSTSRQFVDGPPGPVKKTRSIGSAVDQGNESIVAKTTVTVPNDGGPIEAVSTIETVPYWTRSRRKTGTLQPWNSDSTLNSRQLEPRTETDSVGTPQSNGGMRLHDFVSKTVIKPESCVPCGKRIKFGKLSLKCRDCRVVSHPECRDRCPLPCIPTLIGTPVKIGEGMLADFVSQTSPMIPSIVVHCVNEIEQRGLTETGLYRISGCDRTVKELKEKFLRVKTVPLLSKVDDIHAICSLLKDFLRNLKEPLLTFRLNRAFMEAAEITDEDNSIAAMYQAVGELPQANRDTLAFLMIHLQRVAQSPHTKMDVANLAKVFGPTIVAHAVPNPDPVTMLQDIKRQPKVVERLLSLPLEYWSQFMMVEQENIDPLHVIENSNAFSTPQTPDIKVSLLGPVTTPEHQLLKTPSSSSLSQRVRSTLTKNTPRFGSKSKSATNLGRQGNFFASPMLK

[21] = target: T3, NAD-dependent protein deacylase sirtuin-5, mitochondrial; assay: SIRT5 desuccinylase inhibitors, dose response, biochemical, fluorescence imaging, cherry-pick, set 5 (AID 720591);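 note: desuccinylation of succinyl peptide AMC substrate read as fluorescence after trypsin release; potency of inhibitors that lower fluorescence and may act on trypsin instead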
[22] = A375 melanoma cell viability loss, dose response, counter-screen for MITF inhibitor project, CellTiter-Glo luminescence, dry powder, set 4 (AID 624364); type: functional, cell-based; conditions: A-375;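 note: A375 melanoma cells are MITF independent so this is a counter screen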
[23] = A375 melanoma cell cytotoxicity, dose response, counter-screen for MITF inhibitor project, CellTiter-Glo luminescence, dry powder, set 2 (AID 624489); type: functional, cell-based; conditions: A-375;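 note: actives are compounds lowering A375 viability meaning general cytotoxicity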

T4 sequence (P11940 whole entry): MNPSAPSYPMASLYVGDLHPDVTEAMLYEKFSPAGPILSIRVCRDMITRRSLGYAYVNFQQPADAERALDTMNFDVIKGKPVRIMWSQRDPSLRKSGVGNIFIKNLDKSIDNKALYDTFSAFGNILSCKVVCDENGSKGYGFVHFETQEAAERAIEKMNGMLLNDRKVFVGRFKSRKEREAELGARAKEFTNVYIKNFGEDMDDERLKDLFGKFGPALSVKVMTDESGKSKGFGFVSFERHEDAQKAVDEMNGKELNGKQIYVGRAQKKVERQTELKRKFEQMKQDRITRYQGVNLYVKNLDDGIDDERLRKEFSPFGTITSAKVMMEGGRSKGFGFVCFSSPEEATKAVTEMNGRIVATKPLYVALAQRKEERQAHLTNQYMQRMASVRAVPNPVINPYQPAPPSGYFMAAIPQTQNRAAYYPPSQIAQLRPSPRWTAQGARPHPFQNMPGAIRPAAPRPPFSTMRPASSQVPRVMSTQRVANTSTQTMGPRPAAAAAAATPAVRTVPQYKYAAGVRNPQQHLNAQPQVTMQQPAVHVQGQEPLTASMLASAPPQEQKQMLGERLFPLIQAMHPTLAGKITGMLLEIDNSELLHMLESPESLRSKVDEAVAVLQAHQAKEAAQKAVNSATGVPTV
T3 sequence (Q9NXA8 whole entry): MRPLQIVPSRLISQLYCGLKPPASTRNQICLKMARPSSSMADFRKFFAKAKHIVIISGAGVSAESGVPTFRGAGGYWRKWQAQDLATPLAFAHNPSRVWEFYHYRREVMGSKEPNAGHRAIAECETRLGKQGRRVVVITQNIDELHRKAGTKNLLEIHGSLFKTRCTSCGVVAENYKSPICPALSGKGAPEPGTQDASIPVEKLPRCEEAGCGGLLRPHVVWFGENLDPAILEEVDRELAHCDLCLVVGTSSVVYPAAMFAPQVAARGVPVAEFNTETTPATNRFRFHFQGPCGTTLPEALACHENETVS
Sequence of Glutathione-S-transferase (Q26513 whole entry): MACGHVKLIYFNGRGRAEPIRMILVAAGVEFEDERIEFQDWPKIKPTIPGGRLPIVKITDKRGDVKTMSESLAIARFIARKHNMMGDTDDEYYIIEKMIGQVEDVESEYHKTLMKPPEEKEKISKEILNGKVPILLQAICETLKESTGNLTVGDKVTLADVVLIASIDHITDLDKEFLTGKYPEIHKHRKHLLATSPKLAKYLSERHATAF
Sequence of Induced myeloid leukemia cell differentiation protein Mcl-1 (Q07820 whole entry): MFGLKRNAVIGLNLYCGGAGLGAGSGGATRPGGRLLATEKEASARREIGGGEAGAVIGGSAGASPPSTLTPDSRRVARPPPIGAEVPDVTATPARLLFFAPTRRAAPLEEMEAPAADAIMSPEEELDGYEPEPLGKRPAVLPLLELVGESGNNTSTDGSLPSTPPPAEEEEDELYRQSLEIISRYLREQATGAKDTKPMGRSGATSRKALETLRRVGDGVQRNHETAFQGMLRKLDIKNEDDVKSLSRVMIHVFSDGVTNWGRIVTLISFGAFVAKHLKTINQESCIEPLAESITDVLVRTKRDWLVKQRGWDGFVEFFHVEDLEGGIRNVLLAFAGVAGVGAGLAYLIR
Sequence of Cytochrome P450 2D6 (P10635 whole entry): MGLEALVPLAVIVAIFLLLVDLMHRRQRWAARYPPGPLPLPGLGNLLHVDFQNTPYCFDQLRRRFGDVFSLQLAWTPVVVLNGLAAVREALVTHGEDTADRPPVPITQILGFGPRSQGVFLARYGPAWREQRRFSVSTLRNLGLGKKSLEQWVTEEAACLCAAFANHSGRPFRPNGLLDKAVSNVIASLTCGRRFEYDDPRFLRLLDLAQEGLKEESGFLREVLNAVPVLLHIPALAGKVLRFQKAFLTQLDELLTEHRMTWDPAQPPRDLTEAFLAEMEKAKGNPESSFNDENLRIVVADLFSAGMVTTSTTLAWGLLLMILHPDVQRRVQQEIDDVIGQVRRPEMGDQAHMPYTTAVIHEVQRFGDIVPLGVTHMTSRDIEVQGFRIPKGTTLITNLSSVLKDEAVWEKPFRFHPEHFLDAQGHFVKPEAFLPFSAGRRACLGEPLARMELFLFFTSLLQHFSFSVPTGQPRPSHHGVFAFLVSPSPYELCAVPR

Cn1c(C(=O)N2CCN(c3nc4ccccc4s3)CC2)cc2sccc21
AC50 [1]: 4.97 µM (active) | AC50 [2]: 16.4 µM (active) | AC50 [3]: 3.01 µM (active) | AC50 [4]: 8.02 µM (active)

O=C(NNC(=O)c1cc(-c2ccc(Cl)c(Cl)c2)nc2ccccc12)Nc1ccccc1
AC50 [5]: 20 µM (inconclusive) | EC50 [6]: 4.69 µM (active) | IC50 [7]: 3.12 µM (active) | EC50 [8]: 13.7 µM (active) | IC50 [9]: 34.2 µM (inactive) | AC50 [10]: 4.94 µM (active) | IC50 [11]: 1.64 µM (active) | EC50 [12]: > 150 µM (not active) | IC50 [13]: 22.4 µM (inactive)

O=C(O)CCNc1ncnc2ccccc12
AC50 [14]: > 30 µM (inactive)

COc1ccc2c3c(cccc13)N(C)N=C2C
IC50 [15]: > 66 µM (inactive) | IC50 [16]: > 20 µM (inactive) | IC50 [17]: 1.33 µM (active) | IC50 [18]: > 66 µM (inactive) | IC50 [19]: 36.6 µM (active) | IC50 [20]: 34.4 µM (active)

CC(C)C[C@H](NS(=O)(=O)c1ccc(F)cc1F)C(=O)N1CCC[C@H]1C(=O)NCc1ccccc1
AC50 [21]: 15.3 µM (active)

C=C1C(=O)OC2C1CC/C(C)=C\CCC1(C)OC21 (stereo not drawn)
AC50 [22]: > 70 µM (inactive) | AC50 [23]: 43.9 µM (active)
